Experimental data: patent publication US20250092032A1, “DEOXYCYTIDINE KINASE INHIBITORS” (CENTRE NATIONAL DE LA RECHERCHE SCIENTIFIQUE, priority 2022, published 2025)

System: CCRF-CEM T-ALL cell line
Assay: In vivo systemic leukemia model: NSG mice inoculated intravenously with luciferase-expressing CCRF-CEM cells
Experimental: Healthy 6 to 9 weeks-old male mice received 0.1×10^6 luciferase transduced-CCRF-CEM cells in the tail vein on Day 0 and were randomly assigned in four groups to receive intraperitoneal injections from Day 3 (Vehicle (n=8), dT (n=8), OR0642 (n=9) and dT+OR0642 (n=9)). […] Doses administered were: dT at 1.5 g/Kg, OR0642 at 40 mg/Kg and dT+OR0642 at 1.5 g/Kg and 40 mg/Kg, respectively. Vehicle was saline solution (0.9% NaCl) supplemented with 10% Kolliphor EL. OR0642 was administered in its hydrochloride salt form. Drug administration protocol is detailed in FIG. 4. Bioluminescence analysis was performed once/week using PhotonIMAGER Optima (Biospace Lab) following addition of endotoxin-free luciferin (30 mg/kg, Promega). Peripheral blood was obtained at Day 21 to determine the fraction of human blasts using flow cytometry. […] Analyses were performed on a Life Science Research Fortessa flow cytometer with DIVA software (BD Biosciences). The number of ALL cells/L peripheral blood was determined by using CountBright beads (Invitrogen, C36950) using described protocol. Daily monitoring of mice for symptoms of disease (ruffled coat, hunched back, weakness and reduced motility) determined the time of killing for injected animals with signs of distress. Kaplan-Meier curves, bioluminescence quantifications and statistical analyses were generated using Prism (Graphpad Software). Bioluminescence data were presented as the mean f SEM. Comparison of bioluminescence data at Day 21 was performed using One way ANOVA Kruskal-Wallis Test and Dunn's Multiple Comparison Test. Comparison of hCD45 populations was performed using One way ANOVA Kruskal-Wallis Test and Dunn's Multiple Comparison Test. Median survival times were compared using Log-Rank (Mantel-Cox) Test.

For CCCN(c1nc(-c2nc(N)cc(N)n2)cs1)c1cc(-c2ccc(S(=O)(=O)N3CCN(C)CC3)cc2C(F)(F)F)ccc1C [OR0642, 2-(2-((4-Methyl-4′-((4-methylpiperazin-1-yl)sulfonyl)-2′-(trifluoromethyl)-[1,1′-biphenyl]-3-yl)(propyl)amino)thiazol-4-yl)pyrimidine-4,6-diamine], the “effect on disease progression / disease burden (bioluminescence)” value (CCRF-CEM leukemia bearing NSG mice, dT 1.5 g/Kg, OR0642 40 mg/Kg (hydrochloride salt) i.p., FIG. 5) was “did not show any anti-proliferative effect” and the “day around which most of the mice died” value (the two components administered separately, FIG. 8) was about 26 days.
